# Laboratory results taken from article PMC9788395, “Cell-Penetrating Peptide–Peptide Nucleic Acid Conjugates as a Tool for Protein Functional Elucidation in the Native Bacterium” (Molecules, 2022).
# Non-standard residues stand in square brackets, D forms with d. Residues, ends and D or L forms follow the SMILES beside them. Dab = NCC[C@H](N)C(=O)O
# Test system: Paenibacillus sp. YYML68
# Assay type: cell-based
# Settings: not told
# Experimental: Figure S5. Evaluation of (DabFF)3K-FAM permeation into Paenibacillus sp. YYML68. (DabFF)3Dab- […]
# FAM permeation was performed at 2 µM concentration in PBS at room temperature (23℃) for 1 h.
# Untreated […] strain samples were used as a negative control (NC). Green fluorescence images […]
# were captured using the blue wide-excitation mirror unit (U-FBWA; Olympus). Cell integrity was […]
# confirmed by bright field (BF) images. Images of (DabFF) 3Dab-FAM permeated cells and the negative […]
# controls were captured at similar exposure times to allow for comparison. Scale bar is 5 µm.
# Enzymes for Biocatalysis: Sources, Biocatalytic Characteristic and Bioprocesses of Marine […]
# Enzymes, Trincone, A., Ed. Woodhead Publishing Limited: Cambridge, 2013; pp 4 29-464.
# electrospray ionization mass spectrometry for the characterization of kappa - and iota- […]
# carrageenans. Application to the hybrid iota -/nu-carrageenans. Analytical chemistry 2005, 77, […]
# Cerezo, A. S.; Erra-Balsells, R.; Matulewicz, M. C., Matrix -assisted laser desorption/ionization time-of-flight (MALDI-TOF) mass spectrometry analysis of oligosaccharides and […]
# oligosaccharide alditols obtained by hydrolysis of agaroses and carrageenans, two important […]
# types of red seaweed polysaccharides. Carbohydrate research 2010, 345, (2), 275-83.
# (1 picture or pasted object on this page, not shown here)
compound,measurement,value
NCC[C@H](NC(=O)[C@H](Cc1ccccc1)NC(=O)[C@H](Cc1ccccc1)NC(=O)[C@H](CCN)NC(=O)[C@H](Cc1ccccc1)NC(=O)[C@H](Cc1ccccc1)NC(=O)[C@H](CCN)NC(=O)[C@H](Cc1ccccc1)NC(=O)[C@H](Cc1ccccc1)NC(=O)[C@@H](N)CCN)C(=O)O [(DabFF)3Dab] (H-[Dab]FF[Dab]FF[Dab]FF[Dab]-OH),Permeation of the membrane of Paenibacillus sp. strain YYML68,could efficiently and easily permeate the membrane
